Source: the supplement of paper PMC10307832

Columns and labels:
Experiment in all cases: relative viability (nuclei count vs DMSO), 5 days (fraction); higher = more cells survive
Motesanib + Vorinostat = compound: CC1(C)CNc2cc(NC(=O)c3cccnc3NCc3ccncc3)ccc21 [Motesanib] + O=C(CCCCCCC(=O)Nc1ccccc1)NO [Vorinostat] (partner 1 µM)
How it was run: (§1)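 Lung cancer cell lines in 1536-well plates got either a single drug or a fixed anchor-drug dose together with five library-drug doses (not always all listed) in √10 steps, by pin tool, on the day after seeding. Nuclei were counted after 5 days, and relative viability is the treated-to-vehicle ratio of nuclei counts. Values are medians of duplicate plates.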

Motesanib + Foretinib = compound: CC1(C)CNc2cc(NC(=O)c3cccnc3NCc3ccncc3)ccc21 [Motesanib] + COc1cc2c(Oc3ccc(NC(=O)C4(C(=O)Nc5ccc(F)cc5)CC4)cc3F)ccnc2cc1OCCCN1CCOCC1 [Foretinib] (partner 0.25 µM)
How it was run: as §1

[1] = compound: C[C@@]1(C(=O)Nc2ccc(F)nc2)CCCN1c1nc(Nc2cc(C3CC3)n[nH]2)c2cccn2n1 + CC(=O)Nc1cccc(-n2c(=O)n(C3CC3)c(=O)c3c(Nc4ccc(I)cc4F)n(C)c(=O)c(C)c32)c1 [Trametinib] (partner 0.02 µM)
How it was run: as §1

[2] = compound: C[C@@]1(C(=O)Nc2ccc(F)nc2)CCCN1c1nc(Nc2cc(C3CC3)n[nH]2)c2cccn2n1 + CC1(C)CCC(c2ccc(Cl)cc2)=C(CN2CCN(c3ccc(C(=O)NS(=O)(=O)c4ccc(N[C@H](CCN5CCOCC5)CSc5ccccc5)c(S(=O)(=O)C(F)(F)F)c4)cc3)CC2)C1 [Navitoclax] (partner 0.5 µM)
How it was run: as §1

Cell Line | relative viability (Motesanib + Vorinostat; first compound 0.01 µM) | relative viability (Motesanib + Vorinostat; first compound 0.03162 µM) | relative viability (Motesanib + Vorinostat; first compound 0.1 µM) | relative viability (Motesanib + Vorinostat; first compound 0.3162 µM) | relative viability (Motesanib + Vorinostat; first compound 1 µM) | relative viability (Motesanib + Foretinib; first compound 0.01 µM) | relative viability (Motesanib + Foretinib; first compound 0.03162 µM) | relative viability (Motesanib + Foretinib; first compound 0.1 µM) | relative viability (Motesanib + Foretinib; first compound 0.3162 µM) | relative viability (Motesanib + Foretinib; first compound 1 µM) | relative viability ([1]; first compound 0.04 µM) | relative viability ([1]; first compound 0.1265 µM) | relative viability ([1]; first compound 0.4 µM) | relative viability ([1]; first compound 1.265 µM) | relative viability ([2]; first compound 0.04 µM) | relative viability ([2]; first compound 0.1265 µM) | relative viability ([2]; first compound 0.4 µM) | relative viability ([2]; first compound 1.265 µM)
EKVX | 0.777 | 0.819 | 0.777 | 0.895 | 0.867 | 0.744 | 0.902 | 0.743 | 0.82 | 0.921 | 0.433 | 0.227 | 0.355 | 0.288 | 0.944 | 0.728 | 0.785 | 0.593
EMC-BAC-2 | 0.408 | 0.475 | 0.426 | 0.417 | 0.43 | 1.01 | 1.06 | 1.1 | 1.05 | 1.03 | 0.801 | 0.533 | 0.443 | 0.558 | 1.13 | 1.12 | 0.947 | 1.22
EPLC-272H | 0.385 | 0.518 | 0.448 | 0.479 | 0.477 | 0.659 | 0.744 |  | 0.663 | 0.799 | 0.266 | 0.252 | 0.234 | 0.231 | 1.07 | 1.04 | 1.07 | 1.21
H3255 | 0.694 | 0.88 | 0.661 | 0.893 | 0.773 | 0.837 | 0.762 | 0.889 | 0.791 | 0.976 | 0.543 | 0.573 | 0.494 | 0.628 | 0.684 | 0.463 | 0.49 | 0.36
HARA | 0.573 | 0.706 | 0.538 | 0.638 | 0.565 | 0.94 | 0.801 | 0.906 | 0.915 | 0.881 | 0.66 | 0.331 | 0.483 | 0.618 | 1.16 | 1.18 | 1.17 | 1.16
HCC-15 | 0.883 | 0.843 | 0.866 | 0.875 | 0.877 | 0.984 | 0.838 | 1.01 | 1.17 | 1.11 | 0.237 | 0.204 | 0.19 | 0.264 | 0.663 | 0.561 | 0.528 | 0.58
HCC-44 | 1.14 | 1.02 | 1.17 | 1.08 | 1.09 |  |  |  |  |  | 0.879 | 0.871 | 0.717 | 1.02 | 0.804 | 0.884 | 0.68 | 0.903
HCC-78 | 0.429 | 0.467 | 0.494 |  | 0.413 | 0.665 | 0.637 | 0.507 | 0.514 | 0.678 | 0.637 | 1.19 | 0.334 | 0.327 | 0.7 | 0.505 | 0.308 | 0.268
HCC-366 | 0.382 | 0.388 | 0.443 | 0.375 | 0.308 | 0.955 | 0.932 | 0.952 | 0.883 | 1.02 | 0.4 | 0.197 | 0.194 | 0.178 | 1.12 | 0.966 | 0.688 | 1.19
